Tests used:
Plasmodium falciparum [1] = assay: NOVARTIS: Inhibition of Plasmodium falciparum W2 (drug-resistant) proliferation in erythrocyte-based infection assay; format: functional, organism-based; conditions: Plasmodium falciparum, W2; read-out: EC50
[2] = NOVARTIS: Cytotoxicity against human hepatocellular carcinoma cell line (Huh7); format: toxicity, cell-based, Huh-7; conditions: Huh7 cells (hepatocellular carcinoma cell line)
Plasmodium falciparum [3] = assay: NOVARTIS: Inhibition of Plasmodium falciparum 3D7 (drug-susceptible) proliferation in erythrocyte-based infection assay; format: functional, organism-based; conditions: Plasmodium falciparum, 3D7

COc1ccc(S(=O)(=O)N(C)CCCNc2ccnc3cc(Cl)ccc23)cc1
EC50 (Plasmodium falciparum [1]): 197 nM | CC50 [2]: 10100 nM | EC50 (Plasmodium falciparum [3]): 115 nM

Cc1ccn2c(NC(C)(C)CC(C)(C)C)c(-c3ccccc3OC(=O)C3CCC3)nc2c1
EC50 (Plasmodium falciparum [1]): 75.7 nM | CC50 [2]: > 10000 nM | EC50 (Plasmodium falciparum [3]): 822 nM

CCN(CC)C(=O)c1cn(C2CCN(Cc3ccco3)CC2)nn1
EC50 (Plasmodium falciparum [1]): 26.7 nM | CC50 [2]: > 10000 nM | EC50 (Plasmodium falciparum [3]): > 1250 nM

COc1cccc(NC(=O)c2ccc(NCCCN3CC(C)CC(C)C3)c([N+](=O)[O-])c2)c1 (configuration not stated)
EC50 (Plasmodium falciparum [1]): 509 nM | CC50 [2]: > 100000 nM | EC50 (Plasmodium falciparum [3]): 275 nM

COc1ccc([C@]23Oc4cc(OC)cc(OC)c4[C@@]2(O)[C@@H](O)C(C(=O)N(C)C)[C@@H]3c2ccccc2)cc1 (some centres not stated)
EC50 (Plasmodium falciparum [1]): 630 nM | CC50 [2]: > 10000 nM | EC50 (Plasmodium falciparum [3]): > 602 nM

Cc1cc(C(=O)Nc2cnn(Cc3ccc(Cl)cc3Cl)c2)no1
EC50 (Plasmodium falciparum [1]): 371 nM | CC50 [2]: > 100000 nM | EC50 (Plasmodium falciparum [3]): 620 nM

O=c1c(=Cc2ccc(Cl)cc2)sc2nc3ccccc3n12
EC50 (Plasmodium falciparum [1]): 190 nM | CC50 [2]: > 10000 nM | EC50 (Plasmodium falciparum [3]): > 436 nM

COC(=O)[C@@H]1C[C@@H](NC(=O)c2ccc(C)cc2)CN1Cc1ccc(OC)c(C)c1OC
EC50 (Plasmodium falciparum [1]): 137 nM | CC50 [2]: > 10000 nM | EC50 (Plasmodium falciparum [3]): 565 nM

Cc1ccn2c(NC(C)(C)CC(C)(C)C)c(-c3ccccc3OC(=O)CCC3CCCC3)nc2c1
EC50 (Plasmodium falciparum [1]): < 10.2 nM | CC50 [2]: > 10000 nM | EC50 (Plasmodium falciparum [3]): 1100 nM

FC(F)(F)c1ccccc1CN1CCc2nc(N3CCCCC3)sc2C1
EC50 (Plasmodium falciparum [1]): 228 nM | CC50 [2]: > 10000 nM | EC50 (Plasmodium falciparum [3]): 253 nM

O=[N+]([O-])c1cccc(C=NNc2nc(NN=Cc3cccc([N+](=O)[O-])c3)nc(Nc3cccc4ccccc34)n2)c1
EC50 (Plasmodium falciparum [1]): 442 nM | CC50 [2]: > 10000 nM | EC50 (Plasmodium falciparum [3]): 509 nM

CC(Oc1cccc(Cl)c1)C(=O)N1CCc2ccccc21 (configuration not stated)
EC50 (Plasmodium falciparum [1]): 750 nM | CC50 [2]: > 100000 nM | EC50 (Plasmodium falciparum [3]): 748 nM

CCn1c(SCCCCNC(=O)c2cc([N+](=O)[O-])cc([N+](=O)[O-])c2)nc(-c2ccc(C)cc2)c1-c1ccc(C)cc1
EC50 (Plasmodium falciparum [1]): 73.1 nM | CC50 [2]: > 10000 nM | EC50 (Plasmodium falciparum [3]): 679 nM

O=C(C1CC1)N1CCN=C1SCc1ccc(C(F)(F)F)cc1
EC50 (Plasmodium falciparum [1]): > 3700 nM | CC50 [2]: > 100000 nM | EC50 (Plasmodium falciparum [3]): 6080 nM

CC(NCc1ccccc1)c1cc(Cl)ccc1O (configuration not stated)
EC50 (Plasmodium falciparum [1]): 97.2 nM | CC50 [2]: 73300 nM | EC50 (Plasmodium falciparum [3]): 592 nM

O=C1CSC(=Nc2ccc(F)c(Cl)c2)N1c1ccc(F)c(Cl)c1
EC50 (Plasmodium falciparum [1]): 26.7 nM | CC50 [2]: > 10000 nM | EC50 (Plasmodium falciparum [3]): > 1250 nM

O=C(Nc1ccc(Cl)cc1)Nc1ccc(Br)cn1
EC50 (Plasmodium falciparum [1]): 712 nM | CC50 [2]: > 100000 nM | EC50 (Plasmodium falciparum [3]): > 12500 nM

COc1cc(C=C(C#N)c2nc3ccccc3[nH]2)ccc1OCc1ccccc1F
EC50 (Plasmodium falciparum [1]): 937 nM | CC50 [2]: > 100000 nM | EC50 (Plasmodium falciparum [3]): 1380 nM

CCOC(=O)C1=C(C)NC2=C(C(=O)CC(C)(C)C2)C1c1ccc(Cl)cc1 (configuration not stated)
EC50 (Plasmodium falciparum [1]): 67.6 nM | CC50 [2]: > 100000 nM | EC50 (Plasmodium falciparum [3]): 116 nM

Oc1ccc(-c2ccccc2)cc1CNCCCN1CCOCC1
EC50 (Plasmodium falciparum [1]): 28.4 nM | CC50 [2]: > 10000 nM | EC50 (Plasmodium falciparum [3]): 706 nM

O=C(c1cccs1)N1CCN(c2ccc([N+](=O)[O-])c(NC3CC3)c2)CC1
EC50 (Plasmodium falciparum [1]): 1370 nM | CC50 [2]: > 100000 nM | EC50 (Plasmodium falciparum [3]): 2090 nM

CC(C)c1ccc(NC(=O)/C=C/c2ccccc2Cl)cc1
EC50 (Plasmodium falciparum [1]): 109 nM | CC50 [2]: > 10000 nM | EC50 (Plasmodium falciparum [3]): 186 nM

CCCCCCC(=O)Oc1ccccc1-c1nc2cc(C)ccn2c1NC(C)(C)CC(C)(C)C
EC50 (Plasmodium falciparum [1]): 80.3 nM | CC50 [2]: > 10000 nM | EC50 (Plasmodium falciparum [3]): 636 nM

CCCCOc1ccc(NC2=C(N3CCCCC3)C(=O)c3ccccc3C2=O)cc1
EC50 (Plasmodium falciparum [1]): 17.2 nM | CC50 [2]: 15500 nM | EC50 (Plasmodium falciparum [3]): 9.86 nM

CN(C)CCCNC(=O)c1ccc(-c2cncc(-c3cccc(O)c3)n2)cc1
EC50 (Plasmodium falciparum [1]): > 1250 nM | CC50 [2]: > 10000 nM | EC50 (Plasmodium falciparum [3]): 923 nM

COc1ccc(CCNc2nc(NCCCN3CCCC3)ncc2C(=O)NCC(C)C)cc1OC
EC50 (Plasmodium falciparum [1]): > 1350 nM | CC50 [2]: > 10000 nM | EC50 (Plasmodium falciparum [3]): 809 nM

CN(CCCNc1ccnc2cc(Cl)ccc12)C(=O)C(C)(C)C
EC50 (Plasmodium falciparum [1]): 225 nM | CC50 [2]: > 10000 nM | EC50 (Plasmodium falciparum [3]): 203 nM

Cc1ccc(-c2c[n+](-c3ccccc3)c3n2CCCS3)cc1
EC50 (Plasmodium falciparum [1]): 1640 nM | CC50 [2]: > 100000 nM | EC50 (Plasmodium falciparum [3]): 735 nM

CC[n+]1c(/C=C/C=C2\N(C)c3ccccc3C2(C)C)n(Cc2ccccc2)c2ccccc21
EC50 (Plasmodium falciparum [1]): 219 nM | CC50 [2]: 2420 nM | EC50 (Plasmodium falciparum [3]): 355 nM

CCCCCCN(C(=O)c1ccccc1)C(CC)c1nc2ccccc2c(=O)n1-c1ccccc1OC (configuration not stated)
EC50 (Plasmodium falciparum [1]): 526 nM | CC50 [2]: > 7980 nM | EC50 (Plasmodium falciparum [3]): 1050 nM

CCN1CCN(c2cc(C)c(C#N)c3nc4ccccc4n23)CC1
EC50 (Plasmodium falciparum [1]): 1510 nM | CC50 [2]: > 100000 nM | EC50 (Plasmodium falciparum [3]): 798 nM

COc1cccc(CNCCCCCCCCCCCCNCc2cccc(OC)c2O)c1O
EC50 (Plasmodium falciparum [1]): 1010 nM | CC50 [2]: 53500 nM | EC50 (Plasmodium falciparum [3]): 819 nM

NC1(C(=O)O)CCc2cc(C(=O)O)ccc21 (configuration not stated)
EC50 (Plasmodium falciparum [1]): 833 nM | CC50 [2]: > 10000 nM | EC50 (Plasmodium falciparum [3]): > 1160 nM

O=C(CCl)Nc1ccc(Cl)cc1
EC50 (Plasmodium falciparum [1]): 342 nM | CC50 [2]: 5700 nM | EC50 (Plasmodium falciparum [3]): 544 nM

Source: ChEMBL document CHEMBL1156829 (Proc Natl Acad Sci U S A, 2008)
